The text below walks through data of patent publication US10870638B2, “Pyridazinone compound or its salt, and herbicide containing it” (ISHIHARA SANGYO KAISHA, LTD., priority 2016, dated 2020).

What all share (type): in vivo
What all share (conditions): active ingredient amount 31 g/ha, 14th day after application

The subject of assay [1] is corn (Zea mays L.). Nature of the assay: Test Example 1: foliar treatment, growth inhibition rate on 14th day. In short, it runs like this: (§1)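 Using a small sprayer, formulated compound in water (0.1 vol % surfactant, 1,000 L/ha) was applied to seedlings grown from seed in upland soil. Fourteen days on, growth state was observed and expressed as percent inhibition from 0 to 100.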

The test system of assay [2] is green foxtail (Setaria viridis L.). The description is as above. In short, it runs like this: (§2)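 Plants in upland soil were sprayed on the foliage at early leaf stages (wild oat 0.4–1.2, rice 0.2–2.7, green foxtail 0.5–3.2, soybean primary leaf) with wettable powder or emulsifiable concentrate formulations. Spray volume was 1,000 L/ha water containing 0.1 vol% spreader, at prescribed active-ingredient rates. Growth inhibition (0 = untreated, 100 = complete kill) was scored visually on day 14.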

The subject of assay [3] is wheat (Triticum aestivum L.). The description is as above. An outline of the steps: as §1
The subject of assay [4] is wild oat (Avena fatua L.). Described as above. An outline of the steps:
as §2

In assay [5] the test system is soybean (Glycine max Merr.). The description is as above. An outline of the steps:
as §2

For assay [6], the system named is redroot pigweed (Amaranthus retroflexus L.). The assay is described as above. An outline of the steps:
as §1

Assay [7] deals with rice (Oryza sativa L.). Described as above. In short, it runs like this: as §2
For assay [8], the system named is barnyardgrass (Echinochloa crus-qalli L.). The assay is described as above. An outline of the steps:
as §1

For assay [9], the system named is crabgrass (Digitaria sanquinalis L.). The description is as above. In short, it runs like this: as §1
Assay [10] concerns italian ryegrass (Lolium multiflorum Lam.). The assay is described as above. In short, it runs like this: as §1
Assay [11] relates to corn (Zea mays L.). Nature of the assay: Test Example 2: soil application on the day after sowing, growth inhibition rate on 14th day. An outline of the steps:
(§3)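 Pre-emergence soil spray on upland soil the day after sowing; wettable powder or emulsifiable concentrate diluted in water at 1,000 L/ha, dosed to prescribed active-ingredient amounts. Visual growth inhibition scored 14 days after application, 0 (untreated-equivalent) to 100 (complete kill).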

Assay [12] concerns prickly sida (Sida spinosa L.). The assay is described as above. An outline of the steps:
as §3

For assay [13], the system named is green foxtail (Setaria viridis L.). The assay is described as above. An outline of the steps: as §3
Assay [14] relates to wheat (Triticum aestivum L.). The description is as above. In short, it runs like this:
as §3

Assay [15] concerns soybean (Glycine max Merr.). The assay is described as above. An outline of the steps:
as §3

Assay [16] has as its system velvetleaf (Abutilon theophrasti MEDIC.). The assay is described as above. In short, it runs like this:
as §3

Assay [17] relates to redroot pigweed (Amaranthus retroflexus L.). The description is as above. An outline of the steps: as §3
The subject of assay [18] is rice (Oryza sativa L.). The description is as above. An outline of the steps:
as §3

Assay [19] concerns barnyardgrass (Echinochloa crus-qalli L.). The description is as above. In short, it runs like this:
as §3

The test system of assay [20] is crabgrass (Digitaris sanquinalis L.). The description is as above. In short, it runs like this: as §3

As for `Cc1ccc(Oc2cc(C(F)(F)F)c(C(F)(F)F)cn2)cc1-c1c(O)c(C)nn(C)c1=O` [Compound 2-93], the “Growth inhibition rate (%) Corn” value in [1] turned out to be 95%; in assay [11] it was 0%. The “Growth inhibition rate (%) Green foxtail” value in [2] turned out to be 100%; in assay [13], 99%. The “Growth inhibition rate (%) Wheat” value in assay [3] and in assay [14] was 0% in each case. The “Growth inhibition rate (%) Wild oat” value in [4] came to 30%. For the same compound, the “Growth inhibition rate (%) Soybean” value is on record as 10% in assay [5] and 0% in assay [15]. The “Growth inhibition rate (%) Redroot pigweed” value in assay [6] was found to be 20%; in assay [17], 0%. The “Growth inhibition rate (%) Rice” value in [7] and in [18] was 0% each time. Further, the “Growth inhibition rate (%) Barnyardgrass” value in [8] and in assay [19] was 100% each time. The “Growth inhibition rate (%) Crabgrass” value in assay [9] and in [20] was 99% each time. In [10], the “Growth inhibition rate (%) Italian ryegrass” value turned out to be 88%. Further, the “Growth inhibition rate (%) Prickly sida” value in assay [12] was found to be 0%. In addition, the “Growth inhibition rate (%) Velvetleaf” value in assay [16] is listed as 0%.
For `CCc1nn(C)c(=O)c(-c2cc(Oc3ncc(C(F)(F)F)cc3Cl)ccc2C)c1O` [1-98], the “Growth inhibition rate (%) Corn” value in [1] is given as 80%; in [11], 0%. Moreover, the figures for the “Growth inhibition rate (%) Green foxtail” value in assay [2] and in [13] were 60% and 30%, respectively. Besides, the “Growth inhibition rate (%) Wheat” value in assay [3] is listed as 20%; in assay [14], 0%. Moreover, in assay [4], the “Growth inhibition rate (%) Wild oat” value amounted to 65%. The entries for the “Growth inhibition rate (%) Soybean” value in assay [5] and in [15] were 10% and 0%, respectively. Moreover, the “Growth inhibition rate (%) Redroot pigweed” value in [6] and in [17] was 0% each time. Also, the “Growth inhibition rate (%) Rice” value in assay [7] stood at 0%; in assay [18] it was 35%. Also, the “Growth inhibition rate (%) Barnyardgrass” value is recorded as 88% in [8] and 95% in [19]. The “Growth inhibition rate (%) Crabgrass” value is given as 30% in [9] and 20% in assay [20]. The “Growth inhibition rate (%) Italian ryegrass” value in assay [10] is listed as 78%. Besides, the “Growth inhibition rate (%) Prickly sida” value in assay [12] was found to be 0%. Moreover, in [16], the “Growth inhibition rate (%) Velvetleaf” value was found to be 0%.
On to `CCc1nn(C)c(=O)c(-c2cc(Oc3cnc4cc(Cl)ccc4n3)ccc2C)c1O` [Compound 3-34], for which the “Growth inhibition rate (%) Corn” value in assay [1] was determined as 15%; in assay [11], 20%. Besides, the “Growth inhibition rate (%) Green foxtail” value is reported as 100% in assay [2] and 98% in assay [13]. The “Growth inhibition rate (%) Wheat” value in assay [3] came out at 90%; in assay [14], 0%. In addition, in assay [4], the “Growth inhibition rate (%) Wild oat” value is reported as 95%. For the same compound, the “Growth inhibition rate (%) Soybean” value in assay [5] is given as 30%; in assay [15] it was 0%. Further, the “Growth inhibition rate (%) Redroot pigweed” value in assay [6] and in assay [17] was 0% each time. Further, the “Growth inhibition rate (%) Rice” value in assay [7] came out at 90%; in assay [18] it was 20%. Besides, the “Growth inhibition rate (%) Barnyardgrass” value in assay [8] is 100%; in [19], 99%. For the same compound, the “Growth inhibition rate (%) Crabgrass” value in [9] amounted to 95%; in assay [20], 65%. Also, the “Growth inhibition rate (%) Italian ryegrass” value in [10] turned out to be 99%. Besides, in assay [12], the “Growth inhibition rate (%) Prickly sida” value is listed as 0%. The “Growth inhibition rate (%) Velvetleaf” value in [16] is listed as 0%.
Turning to `CC(=O)Oc1cnn(C)c(=O)c1-c1cc(Oc2nc3ccc(Cl)cc3o2)ccc1C` [Compound 2-164], the results for the “Growth inhibition rate (%) Corn” value in assay [1] and in assay [11] were 90% and 0%, respectively. Moreover, the figures for the “Growth inhibition rate (%) Green foxtail” value in [2] and in assay [13] were 100% and 90%, respectively. Besides, the “Growth inhibition rate (%) Wheat” value in assay [3] came to 10%; in [14], 0%. Besides, in assay [4], the “Growth inhibition rate (%) Wild oat” value was determined as 90%. Also, the results for the “Growth inhibition rate (%) Soybean” value in [5] and in [15] were 40% and 0%, respectively. In addition, the “Growth inhibition rate (%) Redroot pigweed” value in [6] and in [17] was 0% in each case. In addition, the “Growth inhibition rate (%) Rice” value in assay [7] stood at 83%; in [18], 0%. Further, the “Growth inhibition rate (%) Barnyardgrass” value in assay [8] is given as 100%; in assay [19] it was 50%. For the same compound, the “Growth inhibition rate (%) Crabgrass” value in [9] worked out at 100%; in assay [20] it was 98%. In addition, the “Growth inhibition rate (%) Italian ryegrass” value in assay [10] was 95%. Further, the “Growth inhibition rate (%) Prickly sida” value in [12] came to 0%. In addition, the “Growth inhibition rate (%) Velvetleaf” value in [16] came to 0%.
In the case of `Cc1ccc(Oc2nc3ccc(F)cc3s2)cc1-c1c(O)c(C)nn(C)c1=O` [Compound 2-155], the “Growth inhibition rate (%) Corn” value is reported as 10% in [1] and 0% in assay [11]. The “Growth inhibition rate (%) Green foxtail” value in [2] is 60%; in [13], 88%. In addition, the “Growth inhibition rate (%) Wheat” value was determined as 25% in assay [3] and 0% in assay [14]. For the same compound, in assay [4], the “Growth inhibition rate (%) Wild oat” value is recorded as 0%. The “Growth inhibition rate (%) Soybean” value in assay [5] and in assay [15] was 0% each time. The “Growth inhibition rate (%) Redroot pigweed” value in assay [6] and in assay [17] was 0% each time. For the same compound, the “Growth inhibition rate (%) Rice” value is on record as 0% in assay [7] and 70% in [18]. Moreover, the “Growth inhibition rate (%) Barnyardgrass” value in [8] was found to be 78%; in [19] it was 85%. In addition, the “Growth inhibition rate (%) Crabgrass” value came out at 40% in [9] and 83% in assay [20]. Moreover, the “Growth inhibition rate (%) Italian ryegrass” value in assay [10] is reported as 10%. For the same compound, the “Growth inhibition rate (%) Prickly sida” value in assay [12] is 0%. Besides, the “Growth inhibition rate (%) Velvetleaf” value in assay [16] is on record as 0%.
On to `CCc1ccc(Oc2nc3ccccc3o2)cc1-c1c(O)c(C)nn(C)c1=O` [Compound 2-165], for which the “Growth inhibition rate (%) Corn” value in [1] stood at 35%; in assay [11] it was 0%. Besides, the “Growth inhibition rate (%) Green foxtail” value stood at 88% in [2] and 99% in [13]. In addition, the “Growth inhibition rate (%) Wheat” value in [3] and in assay [14] was 0% each time. Also, in assay [4], the “Growth inhibition rate (%) Wild oat” value was determined as 0%. The “Growth inhibition rate (%) Soybean” value in assay [5] was found to be 25%; in assay [15] it was 0%. In addition, the “Growth inhibition rate (%) Redroot pigweed” value in assay [6] and in assay [17] was 0% in each case. The “Growth inhibition rate (%) Rice” value in [7] is recorded as 25%; in assay [18], 70%. Further, the “Growth inhibition rate (%) Barnyardgrass” value in assay [8] came out at 100%; in [19], 99%. The “Growth inhibition rate (%) Crabgrass” value stood at 70% in assay [9] and 98% in [20]. Besides, the “Growth inhibition rate (%) Italian ryegrass” value in [10] is on record as 0%. Further, in assay [12], the “Growth inhibition rate (%) Prickly sida” value was found to be 0%. Moreover, the “Growth inhibition rate (%) Velvetleaf” value in assay [16] is 0%.
As to `CC(=O)Oc1c(C)nn(C)c(=O)c1-c1cc(Oc2ncc(C(F)(F)F)cc2Cl)c(C)cc1C` [1-152], the entries for the “Growth inhibition rate (%) Corn” value in [1] and in assay [11] were 90% and 10%, respectively. In addition, the entries for the “Growth inhibition rate (%) Green foxtail” value in [2] and in [13] were 100% and 85%, respectively. The “Growth inhibition rate (%) Wheat” value in assay [3] was 88%; in [14], 0%. Besides, the “Growth inhibition rate (%) Wild oat” value in assay [4] is 100%. For the same compound, the figures for the “Growth inhibition rate (%) Soybean” value in assay [5] and in assay [15] were 30% and 10%, respectively. In addition, the “Growth inhibition rate (%) Redroot pigweed” value in assay [6] and in assay [17] was 0% in each case. Besides, the “Growth inhibition rate (%) Rice” value in assay [7] is 85%; in [18], 0%. Also, the results for the “Growth inhibition rate (%) Barnyardgrass” value in assay [8] and in [19] were 100% and 80%, respectively. Moreover, the “Growth inhibition rate (%) Crabgrass” value in assay [9] worked out at 99%; in assay [20], 35%. Also, the “Growth inhibition rate (%) Italian ryegrass” value in assay [10] was 99%. Further, in assay [12], the “Growth inhibition rate (%) Prickly sida” value is 0%. In addition, the “Growth inhibition rate (%) Velvetleaf” value in [16] came to 0%.
